Our source for the IC50 values is patent US12336981B2, “Compounds and compositions for the inhibition of NAMPT” (Valo Health, Inc., priority 2010, dated 2025).

The structures appear in SMILES notation. Where two headings read alike, the source gives them in different places. Some results are limits rather than exact numbers.

The target of one assay is T1, NAMPT (Homo sapiens, UniProt P43490).
T1 construct: His tag; host or cells: E. coli
As to the kind of experiment: Biochemical inhibition assay: NAMPT enzymatic reaction, NMN quantified by mass spectrometry. The following applies: read-out: Biochem IC50. An outline of the steps:
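Inhibition of E. coli-expressed His-tagged human NAMPT, measured as NMN formation by mass spectrometry after a 30 min room-temperature reaction containing 1 μM NAM, 100 μM PRPP and 2.5 mM ATP.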

In the next assay the test system is A2780 cells. Briefly: In-vitro cell proliferation assay (SRB), A2780 cells. It is filed as cell-based. The following applies: Homo sapiens, A2780, 72 h, A2780 cells, 72 hours, read-out: A2780 IC50. The essentials:
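Read-out is SRB absorbance at 570 nm on TCA-fixed cells after 72 hours of compound treatment at 37° C. in 5% CO2. Background from a media-only plate is subtracted, and % inhibition is interpolated between two tested concentrations.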

T1 sequence (P43490 whole entry): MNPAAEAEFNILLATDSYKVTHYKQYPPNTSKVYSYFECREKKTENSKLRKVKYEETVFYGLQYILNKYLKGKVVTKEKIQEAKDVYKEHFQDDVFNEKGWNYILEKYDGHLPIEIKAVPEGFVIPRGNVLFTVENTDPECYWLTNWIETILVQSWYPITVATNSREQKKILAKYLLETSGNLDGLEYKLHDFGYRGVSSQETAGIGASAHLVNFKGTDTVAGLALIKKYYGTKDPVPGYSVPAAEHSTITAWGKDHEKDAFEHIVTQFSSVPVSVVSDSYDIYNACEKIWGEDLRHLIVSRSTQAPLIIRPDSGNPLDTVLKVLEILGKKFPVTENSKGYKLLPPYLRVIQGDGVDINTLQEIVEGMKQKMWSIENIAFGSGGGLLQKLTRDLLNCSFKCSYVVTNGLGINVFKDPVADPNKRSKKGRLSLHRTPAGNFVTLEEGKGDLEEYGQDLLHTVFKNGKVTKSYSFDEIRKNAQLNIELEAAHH

As to `COc1ccc(F)c(F)c1S(=O)(=O)c1ccc(CNC(=O)c2cc3cnccc3[nH]2)cc1` [N-({4-[(2,3-difluoro-6-methoxybenzene)sulfonyl]phenyl}methyl)-1H-pyrrolo[3,2-c]pyridine-2-carboxamide], the IC50 – broadly, the concentration needed to halve the response being measured – at NAMPT (NAMPT enzymatic reaction) was 204 nM; with A2780 cells (SRB), 84.9 nM.

Turning to `O=C(NCc1ccc(S(=O)(=O)Nc2ccc3c(c2)OCCO3)cc1)c1cc2cnccc2[nH]1` [N-({4-[(2,3-dihydro-1,4-benzodioxin-6-yl)sulfamoyl]phenyl}methyl)-1H-pyrrolo[3,2-c]pyridine-2-carboxamide], the 50% inhibitory concentration (IC50) at NAMPT (NAMPT enzymatic reaction) and in the assay with A2780 cells (SRB assay) was greater than 10000 nM throughout.

As to `COc1cc(C)cc(S(=O)(=O)c2ccc(CNC(=O)c3cc4cnccc4[nH]3)cc2)c1OC` [N-({4-[(2,3-dimethoxy-5-methylbenzene)sulfonyl]phenyl}methyl)-1H-pyrrolo[3,2-c]pyridine-2-carboxamide], the values for the half-maximal inhibitory concentration (IC50) on NAMPT (NAMPT enzymatic assay) and in the assay on A2780 cells (SRB) were 10 nM and 2 nM, respectively.

Take `COc1cc(C)cc(S(=O)(=O)c2ccc(CNC(=O)c3cc4ccncc4s3)cc2)c1OC` [N-({4-[(2,3-dimethoxy-5-methylbenzene)sulfonyl]phenyl}methyl)thieno[2,3-c]pyridine-2-carboxamide]: the IC50 is 6 nM at NAMPT (NAMPT enzymatic assay) and 2.7 nM with A2780 cells (SRB).

For the compound `COc1cccc(S(=O)(=O)c2ccc(CNC(=O)c3cnc4[nH]ncc4c3)cc2)c1OC` [N-({4-[(2,3-dimethoxybenzene)sulfonyl]phenyl}methyl)-1H-pyrazolo[3,4-b]pyridine-5-carboxamide], the IC50 on NAMPT (NAMPT enzymatic reaction) is 123 nM; with A2780 cells (SRB), 83.3 nM.

For `COc1cccc(S(=O)(=O)c2ccc(CNC(=O)c3ccc4nccn4c3)cc2)c1OC` [N-({4-[(2,3-dimethoxybenzene)sulfonyl]phenyl}methyl)imidazo[1,2-a]pyridine-6-carboxamide], the IC50 is 68.7 nM on NAMPT (NAMPT enzymatic reaction) and 24.9 nM in the assay on A2780 cells (SRB).

Consider `COc1cccc(S(=O)(=O)c2ccc(CNC(=O)c3cc4ccncc4s3)cc2)c1OC` [N-({4-[(2,3-dimethoxybenzene)sulfonyl]phenyl}methyl)thieno[2,3-c]pyridine-2-carboxamide], for which the IC50 at NAMPT (NAMPT enzymatic assay) stood at 9 nM; with A2780 cells (SRB), 3.4 nM.

With `Cc1cccc(S(=O)(=O)c2ccc(CNC(=O)c3cc4cnccc4[nH]3)cc2)c1C` [N-({4-[(2,3-dimethylbenzene)sulfonyl]phenyl}methyl)-1H-pyrrolo[3,2-c]pyridine-2-carboxamide], the figures for the 50% inhibitory concentration (IC50) on NAMPT (NAMPT enzymatic assay) and with A2780 cells (SRB) were 14 nM and 7 nM, respectively.

Consider `Cc1cccc(S(=O)(=O)c2ccc(CNC(=O)c3ccc4nccn4c3)cc2)c1C` [N-({4-[(2,3-dimethylbenzene)sulfonyl]phenyl}methyl)imidazo[1,2-a]pyridine-6-carboxamide], for which the IC50 is 43.3 nM at NAMPT (NAMPT enzymatic reaction) and 9.85 nM with A2780 cells (SRB).

As to `Cc1cccc(S(=O)(=O)c2ccc(CNC(=O)c3cc4ccncc4s3)cc2)c1C` [N-({4-[(2,3-dimethylbenzene)sulfonyl]phenyl}methyl)thieno[2,3-c]pyridine-2-carboxamide], the results for the IC50 on NAMPT (NAMPT enzymatic assay) and with A2780 cells (SRB) were 11 nM and 4.4 nM, respectively.

On to `Cc1cc(C)c(S(=O)(=O)c2ccc(CNC(=O)c3cnc4[nH]ncc4c3)cc2)cc1C` [N-({4-[(2,4,5-trimethylbenzene)sulfonyl]phenyl}methyl)-1H-pyrazolo[3,4-b]pyridine-5-carboxamide], for which the IC50 turned out to be 31.3 nM at NAMPT (NAMPT enzymatic reaction) and 19.3 nM in the assay on A2780 cells (SRB).

For `Cc1cc(C)c(S(=O)(=O)c2ccc(CNC(=O)c3ccc4nccn4c3)cc2)cc1C` [N-({4-[(2,4,5-trimethylbenzene)sulfonyl]phenyl}methyl)imidazo[1,2-a]pyridine-6-carboxamide], the IC50 on NAMPT (NAMPT enzymatic reaction) worked out at 9.34 nM; with A2780 cells (SRB), 14.1 nM.

With `Cc1cc(C)c(S(=O)(=O)c2ccc(CNC(=O)c3cc4ccncc4s3)cc2)cc1C` [N-({4-[(2,4,5-trimethylbenzene)sulfonyl]phenyl}methyl)thieno[2,3-c]pyridine-2-carboxamide], the IC50 is 8 nM on NAMPT (NAMPT enzymatic assay) and 8.1 nM in the assay on A2780 cells (SRB).

For `Cc1cc(C)c(S(=O)(=O)c2ccc(CNC(=O)c3cnc4[nH]ncc4c3)cc2)c(C)c1` [N-({4-[(2,4,6-trimethylbenzene)sulfonyl]phenyl}methyl)-1H-pyrazolo[3,4-b]pyridine-5-carboxamide], the IC50 on NAMPT (NAMPT enzymatic reaction) was 136 nM; with A2780 cells (SRB) it was 100 to 1000 nM.

On to `Cc1cc(C)c(S(=O)(=O)c2ccc(CNC(=O)c3cc4cnccc4[nH]3)cc2)c(C)c1` [N-({4-[(2,4,6-trimethylbenzene)sulfonyl]phenyl}methyl)-1H-pyrrolo[3,2-c]pyridine-2-carboxamide], for which the IC50 on NAMPT (NAMPT enzymatic assay) came out at 76 nM; with A2780 cells (SRB), 46 nM.

For the compound `O=C(NCc1ccc(S(=O)(=O)c2ccc(F)cc2F)cc1)c1ccc2nccn2c1` [N-({4-[(2,4-difluorobenzene)sulfonyl]phenyl}methyl)imidazo[1,2-a]pyridine-6-carboxamide], the IC50 was 28.3 nM at NAMPT (NAMPT enzymatic reaction) and 28.1 nM in the assay with A2780 cells (SRB).

For `COc1ccc(S(=O)(=O)c2ccc(CNC(=O)c3cc4cnccc4[nH]3)cc2)c(OC)c1` [N-({4-[(2,4-dimethoxybenzene)sulfonyl]phenyl}methyl)-1H-pyrrolo[3,2-c]pyridine-2-carboxamide], the figures for the IC50 on NAMPT (NAMPT enzymatic assay) and in the assay on A2780 cells (SRB) were 27 nM and 7 nM, respectively.

As to `COc1ccc(S(=O)(=O)c2ccc(CNC(=O)c3ccc4nccn4c3)cc2)c(OC)c1` [N-({4-[(2,4-dimethoxybenzene)sulfonyl]phenyl}methyl)imidazo[1,2-a]pyridine-6-carboxamide], the IC50 amounted to 58.2 nM at NAMPT (NAMPT enzymatic reaction) and 15.1 nM with A2780 cells (SRB).

As to `COc1ccc(S(=O)(=O)c2ccc(CNC(=O)c3cc4ccncc4s3)cc2)c(OC)c1` [N-({4-[(2,4-dimethoxybenzene)sulfonyl]phenyl}methyl)thieno[2,3-c]pyridine-2-carboxamide], the half-maximal inhibitory concentration (IC50) is 4.5 nM on NAMPT (NAMPT enzymatic reaction) and 1.6 nM in the assay on A2780 cells (SRB).

With `COc1ccc(NS(=O)(=O)c2ccc(CNC(=O)c3cc4cnccc4[nH]3)cc2)c(OC)c1` [N-({4-[(2,4-dimethoxyphenyl)sulfamoyl]phenyl}methyl)-1H-pyrrolo[3,2-c]pyridine-2-carboxamide], the IC50 at NAMPT (NAMPT enzymatic assay) is 5.8 nM; in the assay on A2780 cells (SRB) it was 6.9 nM.

In the case of `Cc1ccc(S(=O)(=O)c2ccc(CNC(=O)c3cnc4[nH]ncc4c3)cc2)c(C)c1` [N-({4-[(2,4-dimethylbenzene)sulfonyl]phenyl}methyl)-1H-pyrazolo[3,4-b]pyridine-5-carboxamide], the IC50 at NAMPT (NAMPT enzymatic reaction) was 61.2 nM; in the assay with A2780 cells (SRB) it was 71.6 nM.

Consider `Cc1ccc(S(=O)(=O)c2ccc(CNC(=O)c3cc4cnccc4[nH]3)cc2)c(C)c1` [N-({4-[(2,4-dimethylbenzene)sulfonyl]phenyl}methyl)-1H-pyrrolo[3,2-c]pyridine-2-carboxamide], for which the 50% inhibitory concentration (IC50) on NAMPT (NAMPT enzymatic assay) was 21 nM; in the assay with A2780 cells (SRB), 12 nM.

On to `Cc1ccc(S(=O)(=O)c2ccc(CNC(=O)c3ccc4nccn4c3)cc2)c(C)c1` [N-({4-[(2,4-dimethylbenzene)sulfonyl]phenyl}methyl)imidazo[1,2-a]pyridine-6-carboxamide], for which the IC50 came to 21.6 nM on NAMPT (NAMPT enzymatic reaction) and 32.1 nM in the assay with A2780 cells (SRB).

As for `Cc1ccc(S(=O)(=O)c2ccc(CNC(=O)c3cc4ccncc4s3)cc2)c(C)c1` [N-({4-[(2,4-dimethylbenzene)sulfonyl]phenyl}methyl)thieno[2,3-c]pyridine-2-carboxamide], the IC50 at NAMPT (NAMPT enzymatic assay) was found to be 12 nM; with A2780 cells (SRB), 22.2 nM.
